Measured values published in patent US9382295B2, “Cyclic depsipeptide compounds and their uses” (Cypralis Limited, priority 2012, dated 2016).
pIC50: −log10 of the molar value.

Biological target: T1, calcineurin/cyclophilin A (Homo sapiens, UniProt P62937+P63098+Q08209)
T1 construct: purchased Enzo Life Sciences (calcineurin, calmodulin); Sigma (CypA) BML-AK804; C3805
Test: Calcineurin phosphatase (CaN) assay in the presence of Cyp A
Format: biochemical
Details: inhibitor in 1:1 complex with Cyp A; read-out: CaN + CypA (IC50 in the calcineurin/cyclophilin A assay)
Text: **Calcineurin Phosphatase (CaN) Assay The calcineurin phosphatase assay is a means for estimating the immunosuppressive potential of a test compound. Calcineurin is a serine-threonine protein phosphatase that on activation dephosphorylates members of the nuclear factor of activated T cells (NFAT), which are important in T lymphocyte activation. […] To investigate the immunosuppressive potential of exemplary compounds of Formula 1, which are novel cycloundecadepsipeptide compounds, their ability to inhibit calcineurin activity was measured in the presence of Cyp A. The CaN assay kit used is based on a colorimetric assay for measuring calcineurin phosphatase activity, and it is commercially available (Enzo Life Sciences and Calbiochem). Calmodulin is also required for calcineurin activity and RH phosphopeptide is used as an efficient peptide substrate for calcineurin. […] The detection of free phosphate released is based on the classic Malachite green assay. Enzo Life Sciences CaN Assay Kit: BML-AK804 2× assay buffer: 100 mM Tris, pH7.5, 200 mM NaCl, 12 mM MgCl2, 1 mM DTT, 0.05% NP-40, 1 mM CaCl2 Calmodulin (Human, Recombinant): was thawed on ice, diluted 1:50 with 2× assay buffer, and then stored on ice. Calcineurin: was thawed quickly, stored on ice immediately, diluted 1:12.5 with 1× assay buffer, and then stored on ice. R-II Substrate: 915 μL ultrapure water (UPW) was added to the 1.5 mg vial substrate to give a final concentration of 0.75 mM. Inhibitors: 2.5 mM inhibitor in 100% DMSO. Cyp A: recombinant human CypA (Sigma C3805), 1 mg/ml; Recombinant 6-his tagged CypA prepared by the Univ. of Edinburgh was also used. […] Inhibitor dilutions: inhibitor compounds were diluted in UPW in polypropylene low-binding 96 well plates at 5x the final assay concentration. For samples ‘without Cyp A’, a 4-point dilution series of the inhibitor was prepared in duplicate to obtain a final assay concentration of 10, 1, 0.1 and 0.01 μM. […] Cs A inhibitor controls were also prepared to obtain a final concentration of 10 μM Cs A with and without 10 μM Cyp A. Assay Setup: using the half area 96 well plates supplied with the kit, 10 μl UPW was added to duplicate wells to provide the non-inhibited control. 10 μl of the inhibitor or the inhibitor/Cyp A complex was added to the appropriate sample wells. 25 μl of the 2× assay buffer with CaM was added to all wells, then 5 μl of CaN was added to all wells (40 U per well final concentration) except duplicate ‘no calcineurin blank’ wells to which 5 μL 1× assay buffer was added. […] The reaction was started by the addition of 10 μl RII-peptide (0.15 mM final concentration). The reaction was allowed to proceed at 30° C. for a time period in which the reaction is linear for about 60 minutes. The reaction was then terminated by adding 100 μl of the Malachite Green reagent. […] The data were analyzed by subtracting ‘no Calcineurin blank’ from all the absorbance readings and plotting the background corrected absorbances against Log10 inhibitor concentration. A sigmoidal-dose response curve was fitted to the data using GraphPad Prism Software. […] It exerts its immunosuppressive activity by binding to cyclophilin A to form a complex, which then binds to calcineurin and thereby inhibits calcineurin activity.

T1 sequence (P63098 whole entry, other chains not shown): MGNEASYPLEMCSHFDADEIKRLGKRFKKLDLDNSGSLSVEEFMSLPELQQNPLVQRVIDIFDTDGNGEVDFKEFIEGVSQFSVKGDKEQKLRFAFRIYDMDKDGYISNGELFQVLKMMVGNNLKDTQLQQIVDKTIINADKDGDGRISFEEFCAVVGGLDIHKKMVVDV
T1 sequence (P62937 whole entry, other chains not shown): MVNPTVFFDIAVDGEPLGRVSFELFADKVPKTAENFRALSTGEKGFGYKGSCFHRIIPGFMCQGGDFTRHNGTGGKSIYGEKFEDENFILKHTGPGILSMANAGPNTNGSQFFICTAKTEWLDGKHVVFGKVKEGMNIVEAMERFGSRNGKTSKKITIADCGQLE

`CC(C)CC1NC(=O)[C@H](CC(C)C)N(C)C(=O)CN(C)C(=O)C([C@@H](C)O)NC(=O)C([C@H](O)[C@H](C)CCN2CCOCC2)N(C)C(=O)C(C(C)C)N(C)C(=O)C(CC(C)C)NC(=O)C(CC(C)C)N(C)C(=O)C(C(C)C)OC(=O)C(C)NC(=O)C(CC(C)C)N(C)C1=O` (stereo in doubt) [Example 2, cyclo-[(3R,4R,5S)-4-(hydroxy)-3-methyl-5-(methylamino)-1-N-morpholino-hexanoic acid-Thr-Sar-MeLeu-Leu-MeLeu-Ala-D-Hiv-MeLeu-Leu-MeVal]] was tested, and the pIC50 was < 6.00.
